Where two headings read alike, the source gives them in different places. Marks after values point to notes of the source that are not given here.
How the values were obtained:
[1] = tested on: Enterococcus spp.; test: Broth microdilution MIC (Example 11); type: cell-based, E. faecalis, E. faecium; conditions: Enterococcus, VRE, enterococci incl. VRE; read-out: MIC values
[2] = tested on: Aspergillus spp.; test: Antifungal broth microdilution (Example 13); type: cell-based, A. niger, A. terreus, A. fumigatus, A. flavus; conditions: for MEC at 48 hr: complete inhibition (MIC0) not observed
[3] = tested on: Candida spp.; test: Broth microdilution MIC (Example 11); type: cell-based, C. parapsilosis, C. albicans, C. glabrata, C. tropicalis
[4] = tested on: B. cepcacia complex (not further speciated); test: microbe, parasite or virus in culture; type: cell-based, Burkholderia cepacia complex; conditions: Burkholderia cepacia
[5] = tested on: S. aureus; test: Broth microdilution MIC (Example 11); type: cell-based, Staphylococcus aureus

Q: Which MIC [1] does the source give for `CC(S)C(C)S.[Bi]` (stereo not shown) [BisBDT, bismuth-2,3-butanedithiol] here?
A: 0.25 to 1 µg/mL

Q: And the MIC ([2]; 24 h, A. flavus ATCC 22546, complete inhibition, 24 hr, read-out: MIC0 24 hr)?
A: 1 µg/mL

Q: And the MIC ([2]; 24 h, A. flavus ATCC 204304, complete inhibition, 24 hr, read-out: MIC0 24 hr)?
A: 4 µg/mL

Q: And the MIC ([2]; 24 h, A. flavus MMX 7935, complete inhibition, 24 hr, read-out: MIC0 24 hr)?
A: 8 µg/mL

Q: What about the MIC ([2]; 24 h, A. fumigatus ATCC 204305, complete inhibition, 24 hr, read-out: MIC0 24 hr) of the same molecule?
A: 8 µg/mL

Q: And the MIC ([2]; 24 h, A. fumigatus ATCC MYA-3626, complete inhibition, 24 hr, read-out: MIC0 24 hr)?
A: 2 µg/mL

Q: What about the MIC ([2]; 24 h, A. fumigatus MMX 5934, complete inhibition, 24 hr, read-out: MIC0 24 hr) of the same molecule?
A: 2 µg/mL

Q: What about the MIC ([2]; 24 h, A. fumigatus MMX 5939, complete inhibition, 24 hr, read-out: MIC0 24 hr) of the same molecule?
A: 2 µg/mL

Q: What about the MIC ([2]; 24 h, A. terreus MMX 8229, complete inhibition, 24 hr, read-out: MIC0 24 hr) of the same molecule?
A: 0.25 µg/mL

Q: And the MIC ([2]; 48 h, A. flavus ATCC 22546, complete inhibition, 48 hr, read-out: MIC0 48 hr)?
A: 2 µg/mL

Q: What about the MIC ([2]; 48 h, A. flavus MMX 7935, complete inhibition, 48 hr, read-out: MIC0 48 hr) of the same molecule?
A: 8 µg/mL

Q: And the MIC ([2]; 48 h, A. fumigatus ATCC MYA-3626, complete inhibition, 48 hr, read-out: MIC0 48 hr)?
A: 4 µg/mL

Q: What about the MIC ([2]; 48 h, A. fumigatus MMX 5939, 48 hr, cell marked footnote b, read-out: MIC0 48 hr) of the same molecule?
A: 4 µg/mL

Q: What about the MIC ([2]; 48 h, A. terreus MMX 8229, complete inhibition, 48 hr, read-out: MIC0 48 hr) of the same molecule?
A: 1 µg/mL

Q: And the “MEC at 48 hr” value ([2]; A. flavus ATCC 204304, 48 hr)?
A: 4/4^a μg/mL

Q: What about the “MIC 48 hr” value ([2]; A. flavus ATCC 204304, 48 hr, cells marked footnote c (not given; Table 109 gives the 48 hr results as MEC)) of the same molecule?
A: 4^c

Q: What about the “MEC at 48 hr” value ([2]; A. fumigatus ATCC 204305, 48 hr) of the same molecule?
A: 4 µg/mL

Q: What about the MIC 24 hr ([2]; A. fumigatus ATCC MYA-3626, 24 hr) of the same molecule?
A: 2 µg/mL

Q: And the MIC 48 hr ([2]; A. fumigatus ATCC MYA-3626, 48 hr)?
A: 4 µg/mL

Q: And the “MEC at 48 hr” value ([2]; A. fumigatus MMX 5934, 48 hr)?
A: 4 µg/mL

Q: What about the MIC ([2]; A. niger ATCC 29508, complete inhibition, […], read-out: MIC0 48 hr) of the same molecule?
A: 2 µg/mL

Q: What about the MIC ([3]; 24 h, C. albicans MMX 7039, Sensitive, incubation 24 hr) of the same molecule?
A: 2 µg/mL

Q: And the MIC ([3]; 24 h, C. albicans MMX 7055, Sensitive, incubation 24 hr)?
A: 2 µg/mL

Q: What about the MIC ([3]; 24 h, C. glabrata MMX 7318, FLU^R, incubation 24 hr) of the same molecule?
A: 0.25 µg/mL

Q: And the MIC ([3]; 24 h, C. glabrata miX 7086, FLU^R, incubation 24 hr)?
A: 0.5 µg/mL

Q: What about the MIC ([3]; 24 h, C. parapsilosis MMX 2323 (ATCC 22019), QC, incubation 24 hr) of the same molecule?
A: 0.5 µg/mL

Q: And the MIC ([3]; 24 h, C. tropicalis MMX 7247, FLU^R, incubation 24 hr)?
A: 4 µg/mL

Q: And the MIC ([3]; 24 h, C. tropicalis MMX 7248, FLU^R, incubation 24 hr)?
A: 4 µg/mL

Q: And the MIC ([3]; 24 h, C. tropicalis MMX 7360, FLU^R, incubation 24 hr)?
A: 2 µg/mL

Q: What about the MIC ([3]; 48 h, C. albicans MMX 7039, Sensitive, incubation 48 hr) of the same molecule?
A: 2 µg/mL

Q: What about the MIC ([3]; 48 h, C. albicans MMX 7055, Sensitive, incubation 48 hr) of the same molecule?
A: 2 µg/mL

Q: And the MIC ([3]; 48 h, C. glabrata MMX 7318, FLU^R, incubation 48 hr)?
A: 0.5 µg/mL

Q: And the MIC ([3]; 48 h, C. glabrata miX 7086, FLU^R, incubation 48 hr)?
A: 1 µg/mL

Q: And the MIC ([3]; 48 h, C. parapsilosis MMX 2323 (ATCC 22019), QC, incubation 48 hr)?
A: 1 µg/mL

Q: What about the MIC ([3]; 48 h, C. parapsilosis MMX 7370, FLU^R, incubation 48 hr) of the same molecule?
A: 0.5 µg/mL

Q: And the MIC ([3]; 48 h, C. parapsilosis MMX 7555, FLU^R, incubation 48 hr)?
A: 0.5 µg/mL

Q: And the MIC ([3]; 48 h, C. tropicalis MMX 7247, FLU^R, incubation 48 hr)?
A: 4 µg/mL

Q: And the MIC ([3]; 48 h, C. tropicalis MMX 7248, FLU^R, incubation 48 hr)?
A: 8 µg/mL

Q: And the MIC ([3]; 48 h, C. tropicalis MMX 7360, FLU^R, incubation 48 hr)?
A: 2 µg/mL

Q: And the MIC ([4]; strain BC 9)?
A: 0.5 µg/mL

Q: And the MIC ([4]; strain PC 213)?
A: 1 µg/mL

Q: And the MIC ([5]; S. aureus MMX 5373, MRSA, Lev^R Cip^R CC^R Ery^R Ox^R)?
A: ≤0.06 µg/mL

Q: What about the MIC ([5]; S. aureus MMX 6311, MRSA, Lev^R Cip^R CC^R Ery^R Ox^R) of the same molecule?
A: ≤0.06 µg/mL

Q: What about the MIC ([5]; S. aureus MMX 9204, MRSA, Lev^R Cip^R Ery^R Ox^R) of the same molecule?
A: ≤0.06 µg/mL

Q: And the MIC ([5]; S. aureus MMX 9205, MRSA, Lev^R Cip^R CC^R Ery^R Ox^R)?
A: ≤0.06 µg/mL

Q: And the MIC ([5]; Staphylococcus aureus, ATCC 29213 / MSSA)?
A: ≤ 0.06 µg/mL
